Measured values from article PMC12475274, “Harnessing indole scaffolds to identify small-molecule IRE1α inhibitors modulating XBP1 mRNA splicing” (Nature Communications, 2025).
Several values for one entry are separate records, joined by “and”; a condition that tells them apart may be missing. Equal values may be shown once. Read-outs that look alike come from different tables or passages of the source.

Key:
[1] = test system: IRE1α protein in MDA-MB-231 cells; assay: Western blot of IRE1α protein level, MDA-MB-231; type: cell-based, human
Experimental: (§1) A549 cells and MDA-MB-231 Cells were harvested and seeded into 6-well plates with a density of 8 × 10^5 cells per well and cultured overnight. […]. Protein concentrations were measured using a BCA protein assay kit (Thermo Scientific, 23227) and all samples were diluted to the same protein concentration. Each sample with 40 μg of total protein was loaded onto a 4–15% MP stain-free gel (Bio-Rad, 4568085) and separated in tris-glycine-SDS running buffer. The proteins were transferred onto a 0.45 μm PVDF membrane (Bio-Rad, 1704274) using the Trans-Blot Turbo Transfer System with the preprogrammed standard SD protocol (up to 1.0 A; 25 V; 30 min). Membranes were blocked with 5% skim milk (Roth, T145.2) in PBST buffer, then incubated with primary antibody IRE1α (Cell Signaling Technology, #3294 s, 1:1000), XBP1s (Cell Signaling Technology, #12782 s, 1:1000) GAPDH (Proteintech, 10494-1-AP, 1:6000) overnight at 4 °C with shaking. After incubation, membranes were washed with PBST and incubated with the Goat Anti-Rabbit (Proteintech, SA00001-2, 1:6000) antibody at room temperature for 1 h. After washing with PBST, the membranes were visualized using Amersham ECL Prime Western Blotting Detection Kit (Cytiva, RPN2232) and imaged with a ChemiDoc MP imaging system (Bio-Rad).

[2] = test system: IRE1α protein in A549 cells; assay: Western blot of IRE1α protein level, A549; type: cell-based, human
Experimental: as §1

IRE1α (ERN1) = IRE1α (ERN1) (Homo sapiens, UniProt O75460); assay: LanthaScreen Eu kinase binding assay, IRE1α; conditions: for inhibition at 5.56 µM: Conc. 5560 nM; for inhibition at 5.56 µM / inhibition at 16.7 µM / inhibition at 50 µM: duplicates; for inhibition at 16.7 µM: Conc. 16700 nM; for inhibition at 50 µM: Conc. 50000 nM
Experimental: LanthaScreen^TM Eu kinase binding assays were conducted by SelectScreen Kinase Profiling Services (Thermo Fisher) using Alexa Fluor conjugated kinase tracer, tagged kinase protein, and Eu-labeled anti-tag antibody. The binding of the tracer to the kinase will form the tracer-kinase complex, resulting in a high FRET signal with the Eu-labeled anti-tag antibody. Displacement of the tracer by a kinase inhibitor led to a decreased FRET signal. […] Buffer A containing 50 mM HEPES pH 7.5, 0.01% BRIJ-35, 10 mM MgCl2, and 1 mM EGTA was used.
Kinase profiling was conducted by the SelectScreen Kinase Profiling Services (Thermo Fisher), using Z′-LYTE, Adapta, or LanthaScreen Eu Kinase Binding Assay for different kinases. The kinome phylogenetic tree was generated using the KinMap web portal.

HCT 116 cells = assay: Cell viability assay (CCK-8), HCT 116; type: cell-based, human; conditions: HCT 116; for inhibition at 50 µM: Homo sapiens, read-out: antiproliferation, inhibition at highest tested concentration
Experimental: (§2) Cells were collected and seeded into 96-well plates at a density of 2000–4000 cells per well and cultured overnight to allow cells to adhere. After adherence, cells were treated with the indicated compounds for 72 h. Then 20 μL CCK-8 solution (Vazyme, A311) was added into each well and incubated at 37 °C for 2–4 h. Absorbance was detected at a wavelength of 450 nm using a TECAN plate reader. Cell viability was calculated with the equation: Cell viability (%) = 100(Absorbance of treated cell - Absorbance of Blank control)/ (Absorbance of DMSO-treated cells - Absorbance of Blank control); Blank control: medium and CCK-8 solution, no cells.

[3] = test system: XBP1 mRNA splicing in A549 cells; assay: RT-qPCR of ER stress-induced XBP1 mRNA splicing, A549; type: cell-based, human; conditions: for Relative XBP1s/Actin: Fig. 7a, 0.5μg/mL Tm, individual replicates
Experimental: A549 cells, HCT 116 cells, and HT-29 cells were collected and seeded in 6-well plates at a density of 5 × 10^5 cells per well and cultured overnight to attach, then treated with compound or DMSO for 2 h, then 0.5 μg/mL final concentration of tunicamycin (Tm, MP Biomedi, 0215002805) were added to induce the ER stress for 2 h. After treatment, total RNA was purified using an RNeasy mini kit (Qiagen, 74106). 500 ng of total RNA was used for reverse transcription using the High-Capacity cDNA Reverse Transcription Kits (Thermo Fisher, 4368814). cDNA was diluted 1: 5 using RNase-free water, and 1 μL CDNA was used for each qPCR reaction. The qPCR was performed using PowerUp™ SYBR™ Green Master Mix (Thermo Fisher, A25742) with 10 µL reaction volume using Bio-Rad CFX96 Real-Time PCR Detection System following the standard cycling mode (primer Tm ≥ 60 °C) on the manufacturer’s protocol. Data was analyzed using the 2^- ΔΔCt method. The primers used are listed in Supplementary Table S3. The inhibition % was calculated by using the equation: inhibition% = 100× (normalized Tm control - normalized of the sample)/(normalized Tm control - normalized DMSO control). Tm control: Cells treated with tunicamycin; DMSO control: Cells treated with DMSO only.

HT-29 cells = assay: Cell viability assay (CCK-8), HT-29; type: cell-based, human; conditions: HT-29; for inhibition at 50 µM: Homo sapiens, read-out: antiproliferation, inhibition at highest tested concentration
Experimental: as §2

[4] = read-out: IRE1a Kinase Displacement(%)
[5] = IRE1α kinase domain, read-out: IC50 (kinase binding), LanthaScreen Eu kinase binding

IRE1α (ERN1), sequence (O75460 19-977): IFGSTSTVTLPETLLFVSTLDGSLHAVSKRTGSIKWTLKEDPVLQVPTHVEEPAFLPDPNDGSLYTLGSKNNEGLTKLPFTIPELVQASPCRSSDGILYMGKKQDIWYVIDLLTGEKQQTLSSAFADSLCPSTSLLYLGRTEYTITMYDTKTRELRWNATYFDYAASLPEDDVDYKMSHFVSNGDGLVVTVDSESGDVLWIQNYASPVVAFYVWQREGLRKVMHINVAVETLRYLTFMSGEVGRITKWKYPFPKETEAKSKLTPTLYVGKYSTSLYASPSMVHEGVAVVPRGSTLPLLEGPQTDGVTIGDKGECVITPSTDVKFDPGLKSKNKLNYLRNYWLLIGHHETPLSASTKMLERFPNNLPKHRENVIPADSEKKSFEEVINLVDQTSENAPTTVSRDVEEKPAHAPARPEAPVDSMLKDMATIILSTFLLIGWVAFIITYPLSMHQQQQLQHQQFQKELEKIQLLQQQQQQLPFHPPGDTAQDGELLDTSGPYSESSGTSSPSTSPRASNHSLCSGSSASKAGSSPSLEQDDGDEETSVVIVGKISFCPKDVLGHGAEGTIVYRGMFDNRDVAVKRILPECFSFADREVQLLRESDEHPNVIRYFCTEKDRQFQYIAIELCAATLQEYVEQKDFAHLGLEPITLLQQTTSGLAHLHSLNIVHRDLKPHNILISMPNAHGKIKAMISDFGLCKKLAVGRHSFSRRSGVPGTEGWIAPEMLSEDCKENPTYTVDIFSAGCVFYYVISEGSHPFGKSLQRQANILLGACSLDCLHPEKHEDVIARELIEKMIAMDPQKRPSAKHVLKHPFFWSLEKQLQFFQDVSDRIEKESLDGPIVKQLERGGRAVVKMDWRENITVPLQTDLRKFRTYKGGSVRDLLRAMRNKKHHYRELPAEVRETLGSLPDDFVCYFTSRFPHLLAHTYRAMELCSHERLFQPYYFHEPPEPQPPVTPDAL

`CCOC(=O)Nc1cccc2c(Oc3ncccc3-c3ccnc(N[C@H]4CCCNC4)n3)c(C)ccc12` [Compound G1749, reference compound] was tested, and the “effect on IRE1α protein level” value [1] was “did not affect” and the “effect on IRE1α protein level” value [2] was “did not affect”.

Work on `COc1ccc2c(c1)c(CCC(=O)O)c(C)n2C(=O)c1ccc(Cl)cc1` [IA01] yielded an inhibition at 5.56 µM (IRE1α (ERN1); [4]) of 50%, an inhibition at 16.7 µM (IRE1α (ERN1); [4]) of 63% and an inhibition at 50 µM (IRE1α (ERN1); [4]) of 70%. The IC50 (IRE1α (ERN1); [5]) was 2.47 µM.

`COc1ccc2c(c1)c(CCC(=O)O)c(C)n2C(=O)c1ccccc1` [IA64] gave an inhibition at 5.56 µM (IRE1α (ERN1); [4]) of 104%, an inhibition at 16.7 µM (IRE1α (ERN1); [4]) of 98% and an inhibition at 50 µM (IRE1α (ERN1); [4]) of 109%. It also gave an IC50 (IRE1α (ERN1); [5]) of 1.1 µM.

For `Cc1c(CCC(=O)O)c2cc(Br)ccc2n1C(=O)c1ccccc1` [IA107], the “cytotoxicity” value (HCT 116 cells) was “did not show cytotoxicity”, the inhibition at 50 µM (HCT 116 cells) was less than 30% and the inhibition at 5.56 µM (IRE1α (ERN1); [4]) was 88%. The inhibition at 16.7 µM (IRE1α (ERN1); [4]) was 94%, the inhibition at 50 µM (IRE1α (ERN1); [4]) was 96% and the IC50 (IRE1α (ERN1); [5]) was 0.768 µM. For the same compound, the inhibition at 5 µM (IRE1α (ERN1); kinase profiling, ERN1, LanthaScreen Binding, IA107 at 5 μM) was 91%, the “inhibition of ER stress-induced XBP1 mRNA splicing” value ([3]; A549 cells, 2 h pre-treatment, 2 h tunicamycin) was “concentration-dependently inhibited” and the “Relative XBP1s/Actin” value ([3]; 5 μM) was 3.514 and 3.6054 and 3.452 and 3.1438. For the same compound, the “Relative XBP1s/Actin” value ([3]; 10 μM) was 3.066 and 2.696 and 2.897 and 2.792, the “Relative XBP1s/Actin” value ([3]; 25 μM) was 2.48 and 2.329 and 2.338 and 2.263 and the “Relative XBP1s/Actin” value ([3]; 50 μM) was 1.745 and 1.521 and 1.514 and 1.455. The “cytotoxicity” value (HT-29 cells) was “did not show cytotoxicity” and the inhibition at 50 µM (HT-29 cells) was less than 30%.

With `CCOC(=O)CCc1c(C)n(C(=O)c2ccccc2)c2ccc(Br)cc12` [IAPD1] the “effect on IRE1α protein level” value [1] was “did not affect”, the “cytotoxicity” value (HCT 116 cells) was “did not show cytotoxicity” and the inhibition at 50 µM (HCT 116 cells) was less than 30%. For the same compound, the “binding to IRE1α kinase domain in LanthaScreen assay” value (IRE1α (ERN1)) was “did not show any detectable activity”, the inhibition at 0.0686 µM (IRE1α (ERN1); 0.0686 μM, read-out: IRE1a Kinase Displacement(%)) was 11.5% and the “binding to IRE1α kinase domain in LanthaScreen assay” value (IRE1α (ERN1); listed as IADP1) was “did not show any detectable”. The IC50 (IRE1α (ERN1); read-out: IC50 (Kinase), LanthaScreen kinase binding/displacement) was greater than 50 µM, the “effect on IRE1α protein level” value [2] was “did not affect” and the IC50 ([3]; Homo sapiens, A549 cells, tunicamycin, read-out: cellular IC50, ER stress-induced XBP1 mRNA splicing) was 0.18 µM. For the same compound, the “improvement of the cellular activity in inhibiting XBP1 mRNA splicing” value ([3]; prodrug versus IA107) was 50 fold, the “cytotoxicity” value (HT-29 cells) was “did not show cytotoxicity” and the inhibition at 50 µM (HT-29 cells) was less than 30%.

With `Cc1ccc2c(NS(=O)(=O)c3ccccc3Cl)cccc2c1Oc1ncccc1-c1ccnc(N[C@H]2CCCNC2)n1` [KIRA8] the “effect on IRE1α protein level” value [1] was “did not affect” and the “effect on IRE1α protein level” value [2] was “did not affect”.
